≈ marks a conversion by molar mass, not a printed value. Calls of active or inactive are those of the source. No cut-off for these calls is given here.
Legend:
[1] = test system: Escherichia coli; assay: Antibacterial activity against Escherichia coli ATCC 25922 assessed as bacterial growth inhibition incubated for 18 hrs by microdilution method; type: functional
[2] = test system: Shigella flexneri; assay: Antibacterial activity against Shigella flexneris ATCC 12022 assessed as bacterial growth inhibition incubated for 18 hrs by microdilution method; type: functional
[3] = test system: Micrococcus luteus; assay: Antibacterial activity against Micrococcus luteus ATCC 9341 assessed as bacterial growth inhibition incubated for 18 hrs by microdilution method; type: functional
[4] = test system: Staphylococcus epidermidis; assay: Antibacterial activity against Staphylococcus epidermidis ATCC 12228 assessed as bacterial growth inhibition incubated for 18 hrs by microdilution method; type: functional
[5] = test system: Bacillus subtilis; assay: Antibacterial activity against Bacillus subtilis ATCC 6633 assessed as bacterial growth inhibition incubated for 18 hrs by microdilution method; type: functional
[6] = test system: Streptococcus pneumoniae; assay: Antibacterial activity against Streptococcus pneumoniae ATCC 49619 assessed as bacterial growth inhibition incubated for 18 hrs by microdilution method; type: functional
[7] = test system: Staphylococcus aureus; assay: Antibacterial activity against Staphylococcus aureus ATCC 25923 assessed as bacterial growth inhibition incubated for 18 hrs by microdilution method; type: functional
[8] = test system: Vesicular stomatitis virus; assay: Antiviral activity against GFP transfected VSV infected in MDCK cells assessed as inhibition of viral replication at MOI of 0.1 at 10 uM preincubated for 8 hrs followed by infected with virus incubated for 24 hrs by flow cytometry (reference value: 51.3+/-1.1%); type: functional; design: scale not given: the % may be the effect or the level left; details: time 32 hrs
[9] = test system: Influenza A virus; assay: Antiviral activity against PR8-GFP transfected IAV infected in MDCK cells assessed as inhibition of viral replication at MOI of 0.01 at 10 uM preincubated for 8 hrs followed by infected with virus incubated for 24 hrs by fluorescence microscope analysis; type: functional, organism-based; details: time 32.0 hrs
[10] = test system: Vesicular stomatitis virus; assay: Antiviral activity against GFP transfected VSV infected in MDCK cells assessed as inhibition of viral replication at MOI of 0.1 at 10 uM preincubated for 8 hrs followed by infected with virus incubated for 24 hrs by fluorescence microscope analysis; type: functional, organism-based; details: time 32.0 hrs

C=CC1=C(C)C(=O)C=C2[C@]1(O)CC[C@@H]1C(C)(C)[C@H](O)[C@H](O)C[C@@]21C
MIC [1]: > 64 µg/mL | MIC [2]: > 64 µg/mL | MIC [3]: > 64 µg/mL | MIC [4]: > 64 µg/mL | MIC [5]: > 64 µg/mL | MIC [6]: > 64 µg/mL | MIC [7]: > 64 µg/mL

CC[C@H]1OC(=O)[C@H](C)[C@@H](O[C@H]2C[C@@](C)(OC)[C@@H](O)[C@H](C)O2)[C@H](C)[C@@H](O[C@@H]2O[C@H](C)C[C@H](N(C)C)[C@H]2O)[C@](C)(OC)C[C@@H](C)C(=O)[C@H](C)[C@@H](O)[C@]1(C)O [CLARITHROMYCIN]
MIC [1]: 2 µg/mL (≈ 2.67 µM) | MIC [2]: < 0.125 µg/mL | MIC [3]: < 0.125 µg/mL | MIC [4]: 0.25 µg/mL (≈ 0.334 µM) | MIC [5]: < 0.125 µg/mL | MIC [6]: < 0.125 µg/mL | MIC [7]: 0.25 µg/mL (≈ 0.334 µM)

C=Cc1c(C)c(O)cc2c1CC[C@@H]1C(C)(C)[C@H](O)[C@H](O)C[C@@]21C
MIC [1]: > 64 µg/mL | MIC [2]: 12 µg/mL (≈ 37.9 µM) | MIC [3]: 16 µg/mL (≈ 50.6 µM) | MIC [4]: 12 µg/mL (≈ 37.9 µM) | MIC [5]: 12 µg/mL (≈ 37.9 µM) | Activity [8]: 3.4% | Activity [9]: Active | MIC [6]: 16 µg/mL (≈ 50.6 µM) | MIC [7]: 12 µg/mL (≈ 37.9 µM) | Activity [10]: Active

Cc1cc2c(cc1O)[C@]1(C)C[C@@H](O)[C@@H](O)C(C)(C)[C@H]1CC2=O
MIC [1]: > 64 µg/mL | MIC [2]: > 64 µg/mL | MIC [3]: > 64 µg/mL | MIC [4]: > 64 µg/mL | MIC [5]: > 64 µg/mL | MIC [6]: > 64 µg/mL | MIC [7]: > 64 µg/mL

Cc1cc2c(cc1O)[C@]1(C)C[C@@H](O)[C@@H](O)C(C)(C)C1=CC2=O
MIC [1]: > 64 µg/mL | MIC [2]: > 64 µg/mL | MIC [3]: > 64 µg/mL | MIC [4]: > 64 µg/mL | MIC [5]: > 64 µg/mL | MIC [6]: > 64 µg/mL | MIC [7]: > 64 µg/mL

Cc1ccc2c(c1)CC[C@@H]1C(C)(C)[C@H](O)[C@H](O)C[C@@]21C
MIC [1]: > 64 µg/mL | MIC [2]: > 64 µg/mL | MIC [3]: > 64 µg/mL | MIC [4]: > 64 µg/mL | MIC [5]: > 64 µg/mL | MIC [6]: > 64 µg/mL | MIC [7]: > 64 µg/mL

Cc1cc2c(cc1O)[C@]1(C)C[C@@H](O)[C@@H](O)C(C)(C)[C@H]1CC2
MIC [1]: > 64 µg/mL | MIC [2]: 32 µg/mL (≈ 110 µM) | MIC [3]: 32 µg/mL (≈ 110 µM) | MIC [4]: 32 µg/mL (≈ 110 µM) | MIC [5]: 32 µg/mL (≈ 110 µM) | MIC [6]: 32 µg/mL (≈ 110 µM) | MIC [7]: 32 µg/mL (≈ 110 µM)

C=Cc1ccc2c(c1)CC[C@@H]1C(C)(C)[C@H](O)[C@H](O)C[C@@]21C
MIC [1]: > 64 µg/mL | MIC [2]: > 64 µg/mL | MIC [3]: > 64 µg/mL | MIC [4]: > 64 µg/mL | MIC [5]: > 64 µg/mL | MIC [6]: > 64 µg/mL | MIC [7]: > 64 µg/mL

CC1=CC2=CC[C@@H]3C(C)(C)[C@H](O)[C@H](O)C[C@@]3(C)[C@@H]2CC1=O
MIC [1]: > 64 µg/mL | MIC [2]: > 64 µg/mL | MIC [3]: > 64 µg/mL | MIC [4]: > 64 µg/mL | MIC [5]: > 64 µg/mL | MIC [6]: > 64 µg/mL | MIC [7]: > 64 µg/mL

Reference: ChEMBL document CHEMBL5120821, “Diterpenoids from Sauropus spatulifolius Leaves with Antimicrobial Activities” (2022)
